Paper PMC8215295, “Identification and characterization of the pyridoxal 5’-phosphate allosteric site in Escherichia coli pyridoxine 5’-phosphate oxidase” (The Journal of Biological Chemistry, 2021)
Where “and” joins values, the source holds several entries; their conditions need not be identical. Equal values may be shown once. Entries after “also recorded” stand apart in the source; their conditions may differ.

Columns and labels:
[1] = biological target: T1, ePNPO R23L variant (Escherichia coli, UniProt P0AFI7, R23L); assay: Fluorimetric PLP binding equilibrium
T1 sequence (P0AFI7 whole entry R23L): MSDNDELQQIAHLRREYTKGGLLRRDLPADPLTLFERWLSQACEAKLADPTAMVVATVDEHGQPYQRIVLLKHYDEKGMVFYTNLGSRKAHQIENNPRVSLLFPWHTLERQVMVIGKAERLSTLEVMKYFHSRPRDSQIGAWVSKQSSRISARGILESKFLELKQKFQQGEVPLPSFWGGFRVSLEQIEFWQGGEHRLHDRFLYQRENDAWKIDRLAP

[2] = biological target: T2, wildtype ePNPO (Escherichia coli, UniProt P0AFI7); conditions: in solution; cited from earlier work
T2 construct: the entire polypeptide chain is made by 218 residues; made in house; host or cells: E. coli MDS00, pET22b(+)
T2 sequence (P0AFI7 whole entry): as the sequence (P0AFI7 whole entry R23L) above, with L23R counted along it

[3] = system: human pyridoxine 5’-phosphate oxidase; set-up: method as in PMID 32788630; conditions: human PNPO; parabolic inhibition model; cited from earlier work
[4] = biological target: T1, ePNPO R23L variant; assay: PLP retention after SEC; conditions: 100 μM enzyme + equimolar PLP, with respect to protein subunits
[5] = biological target: T2, wildtype ePNPO; conditions: read-out: KD^PLP, fluorimetric PLP binding equilibrium; cited from earlier work
[6] = biological target: R23L/R24L ePNPO (Escherichia coli, UniProt P0AFI7, R23L/R24L); assay: PLP binding stoichiometry, fluorimetric titration; conditions: titration of 2, 4 and 8 μM ePNPO with PLP
Sequence of R23L/R24L ePNPO (P0AFI7 whole entry R23L/R24L): as the sequence (P0AFI7 whole entry R23L) above, with R24L counted along it

[7] = system: ePNPO; conditions: cited from earlier work
[8] = biological target: T3, ePNPO K145A/F177A variant (Escherichia coli, UniProt P0AFI7, F177A/K145A); assay: Fluorimetric PLP binding equilibrium
T3 construct: the entire polypeptide chain is made by 218 residues; made in house; host or cells: E. coli MDS00, pET22b(+)
T3 sequence (P0AFI7 whole entry K145A/F177A): as the sequence (P0AFI7 whole entry R23L) above, with L23R, K145A, F177A counted along it
Method: (§1) Binding of PLP to ePNPO variants was also analyzed using the spectrofluorometric method previously employed for the wildtype enzyme ([5]), which is based on the resulting increase of FMN fluorescence emission.

[9] = biological target: T4, ePNPO N84A/K145A/F177A variant (Escherichia coli, UniProt P0AFI7, F177A/K145A/N84A); assay: Fluorimetric PLP binding equilibrium
T4 construct: the entire polypeptide chain is made by 218 residues; made in house; host or cells: E. coli MDS00, pET22b(+)
T4 sequence (P0AFI7 whole entry N84A/K145A/F177A): as the sequence (P0AFI7 whole entry R23L) above, with L23R, N84A, K145A, F177A counted along it
Method: as §1

[10] = biological target: T5, ePNPO N84W/K145A/F177A variant (Escherichia coli, UniProt P0AFI7, F177A/K145A/N84W); assay: Fluorimetric PLP binding equilibrium
T5 construct: the entire polypeptide chain is made by 218 residues; made in house; host or cells: E. coli MDS00, pET22b(+)
T5 sequence (P0AFI7 whole entry N84W/K145A/F177A): as the sequence (P0AFI7 whole entry R23L) above, with L23R, N84W, K145A, F177A counted along it
Method: as §1

[11] = biological target: T3, ePNPO K145A/F177A variant; assay: PLP retention after SEC; assay type: binding; conditions: 100 μM enzyme + equimolar PLP, with respect to protein subunits
Method: (§2) It is known by previous experiments on wildtype ePNPO that, when the protein is incubated with PLP and then passed through an SEC column, it retains PLP tightly bound to it ([7]). […] All ePNPO variants (100 μM) were incubated with an equimolar amount of PLP. Then, they were passed through an SEC column and the stoichiometry of protein-bound PLP with respect to protein subunits was determined. The percentage of protein-bound PLP was 72 ± 8, 73 ± 10, and 73 ± 19, with the K145A/F177A, N84A/K145A/F177A and N84W/K145A/F177A ePNPO variants, respectively (Table 1).

[12] = biological target: T2, wildtype ePNPO; assay: PLP retention after SEC; assay type: binding; conditions: 100 μM enzyme + equimolar PLP, with respect to protein subunits
Method: as §2

[13] = biological target: T4, ePNPO N84A/K145A/F177A variant; assay: PLP retention after SEC; assay type: binding; conditions: 100 μM enzyme + equimolar PLP, with respect to protein subunits
Method: as §2

[14] = biological target: T5, ePNPO N84W/K145A/F177A variant; assay: PLP retention after SEC; assay type: binding; conditions: 100 μM enzyme + equimolar PLP, with respect to protein subunits
Method: as §2

[15] = system: ePNPO quadruple variant (K72I/Y129F/R133L/H199A); conditions: ePNPO quadruple variant with impaired active site; cited from earlier work
[16] = biological target: T6, ePNPO R23L/R24L variant (Escherichia coli, UniProt P0AFI7, R23L/R24L); assay: PLP retention after SEC; conditions: 100 μM enzyme + equimolar PLP, with respect to protein subunits
T6 sequence (P0AFI7 whole entry R23L/R24L): as the sequence (P0AFI7 whole entry R23L) above, with R24L counted along it

[17] = biological target: T6, ePNPO R23L/R24L variant; assay: biochemical; assay type: biochemical; set-up: the entire polypeptide chain is made by 218 residues; made in house; host or cells: E. coli MDS00, pET22b(+)
Text: Initial velocity data obtained with all variant forms were fitted to the Michaelis–Menten equation in order to obtain apparent VMAX and KM values as a function of PLP concentration.
Figure 7 Kinetic analysis of PLP inhibition with Arg-cage variants. […] Initial velocity measurements shown in the left panels are the average ± standard deviation of three independent measurements. Saturation curves were fitted to the Michaelis–Menten equation, obtaining apparent VMAX and KM values as a function of PLP concentration. These are represented as 1/VMAX (blue symbols) and KM/VMAX (red symbols) in the right panels, in order to facilitate the interpretation of the PLP inhibition mechanism from the shape of graphs, which correspond to the classic secondary plots of the Y-intercept and slope derived from Lineweaver–Burk plots. As detailed in the Experimental Procedures section, initial velocity data and 1/VMAX and KM/VMAX values of each data set were globally fitted to Equations (3), (4), (5), obtaining the continuous lines shown in the graphs and the parameter values shown in Table 3.
In order to analyze the above-mentioned kinetic data, a general inhibition model was considered (Fig. 8A), in which PLP binds at both the active and allosteric sites. […] Therefore, the dissociation constant of the substrate binding equilibrium may be assumed to correspond to the Michaelis–Menten constant (KM) derived from steady-state kinetic measurements. Equations describing the dependence of initial velocity, 1/VMAX, and KM/VMAX on substrate and PLP concentration were derived on the basis of these assumptions (Equations (3), (4), (5)). Using these equations, initial velocity data as a function of substrate concentration, obtained at all different fixed PLP concentrations, were globally fit together with the previously obtained values of apparent 1/VMAX and KM/VMAX as a function of PLP concentration.
Inhibition kinetics were measured in 50 mM Na-Hepes pH 7.6. […] All saturation curves obtained by varying PNP at a fixed PLP concentration were independently analyzed using the Michaelis–Menten equation, obtaining apparent VMAX and apparent KM values, which were then used to calculate 1/appVMAX and appKM/appVMAX as a function of PLP concentration.

[18] = biological target: T2, wildtype ePNPO; conditions: cited from earlier work
[19] = biological target: T6, ePNPO R23L/R24L variant; assay: Fluorimetric PLP binding equilibrium
[20] = biological target: the molecule itself; assay: crystal structure; ePNPOqm without PLP, space group P3(1) 2 1, 1.56 Å; one subunit in the asymmetric unit, dimer generated by the crystallographic 2-fold axis; hanging drop, (NH4)2SO4, 298 K

For `Cc1ncc(COP(=O)(O)O)c(C=O)c1O` [PLP, Pyridoxal 5’-phosphate], the Kd [1] is given as 580 ± 120 nM, the “stoichiometry of PLP binding to the allosteric site” value [2] is given as “one PLP molecule per protein dimer” and the “α value (allosteric coupling)” value [3] is given as “about 3”. For the same molecule, the “β coefficient (reduction of kCAT of PES complex)” value [3] was 0.15, the “PLP (%) protein-bound PLP retained after SEC” value [4] was 38 ± 11% and the Kd [5] was 150 nM. The PLP binding stoichiometry [6] was “two molecules of PLP per protein subunit; also recorded: four PLP molecules per enzyme dimer”, the “kOFF of PLP binding” value [7] was 3.2 s⁻¹ and the “kON of PLP binding” value [7] was 1.13e+07 M⁻¹ s⁻¹. For the same molecule, the Kd [8] was 470 ± 60 nM, the Kd [9] was 360 ± 50 nM and the Kd [10] was 330 ± 70 nM. For the same molecule, the “PLP (%) protein-bound PLP retained after SEC” value [11] was 72 ± 8%, the “PLP (%) protein-bound PLP retained after SEC” value [12] was 70% and 69 ± 19% and the “PLP (%) protein-bound PLP retained after SEC” value [13] was 73 ± 10%. For the same molecule, the “PLP (%) protein-bound PLP retained after SEC” value [14] was 73 ± 19%, the “stoichiometry of PLP binding” value [15] was “two PLP molecules per dimer” and the “PLP (%) protein-bound PLP retained after SEC” value [16] was 30 ± 8%. The “α (allosteric coupling coefficient)” value [17] was 6.6, the “γ factor (PLP active site / allosteric site coupling)” value [17] was 0.31 and the “type of PLP inhibition” value ([17]; Hepes buffer) was “parabolic inhibition”. For the same molecule, the Ki ([17]; KI (PLP binding at the allosteric site), global fit (Fig. 8A model)) was 820 ± 20 nM, the Ki ([17]; KX (PLP binding at the active site), global fit (Fig. 8A model)) was 6580 ± 620 nM and the “αKI (PLP binding at allosteric site of ES complex)” value ([17]; global fit (Fig. 8A model)) was 5.39 ± 1.14 µM. For the same molecule, the “β (coefficient reducing kCAT of PES complex)” value ([17]; global fit (Fig. 8A model)) was 0.42 and 0.42 ± 0.05, the Ki ([17]; γKX (PLP binding at active site of PE complex), global fit (Fig. 8A model)) was 2050 ± 60 nM and the “αKI (PLP binding at allosteric site of ES complex)” value ([18]; WT, determined according to Figure 2A model) was 7.13 ± 0.52 µM. The Ki ([18]; read-out: KI (PLP binding at the allosteric site), WT, determined according to Figure 2A model) was 590 ± 700 nM, the “type of PLP inhibition” value ([18]; wildtype ePNPO) was “linear mixed-type inhibition” and the Kd [19] was 1000 ± 90 nM.

B1: Escherichia coli pyridoxine 5'-phosphate oxidase quadruple variant K72I/Y129F/R133L/H199A (enzyme, UniProt P0AFI7 1-218, looked up)
chain: MSDNDELQQIAHLRREYTKGGLRRRDLPADPLTLFERWLSQACEAKLADPTAMVVATVDEHGQPYQRIVLLIHYDEKGMVFYTNLGSRKAHQIENNPRVSLLFPWHTLERQVMVIGKAERLSTLEVMKFFHSLPRDSQIGAWVSKQSSRISARGILESKFLELKQKFQQGEVPLPSFWGGFRVSLEQIEFWQGGEHRLADRFLYQRENDAWKIDRLAP
notes: pyridoxine 5'-phosphate oxidase (PNPO, EC 1.4.3.5) of Escherichia coli, encoded by pdxH; the entire polypeptide chain is made by 218 residues; active site impaired by four substitutions; Gene cloned in pET22b(+) between NdeI and NcoI; no tag is mentioned; Modelled residues: 7-218 in 6YLZ; 17-126 and 176-218 (chain A), 14-166 and 170-218 (chain B) in 6YMH; also called ePNPOqm; source: E. coli …
For B1, the “stoichiometry N” value [20] was 2.
